Data from patent US4771068A, “Mitomycin derivatives having anti-tumor and antibacterial utility” (priority 1985, dated 1988).
≈ marks a conversion by molar mass, not a printed value.

Tests used:
[1] = test system: Streptococcus faecalis ATCC 10541; assay: Antibacterial activity (minimum growth inhibitory concentration), agar dilution method; assay type: cell-based; settings: Enterococcus faecalis, ATCC10541; Streptococcus faecalis ATCC 10541, pH 7.0, agar dilution method; read-out: minimum growth inhibitory concentration, SF
Experimental: (§1) Antibacterial activities of Compounds (I) against various bacteria are shown by the minimum growth inhibitory concentration (μg/ml) in Table 3. The minimum growth inhibitory concentration was measured at pH 7.0 according to the agar dilution method. In the table, bacteria are indicated by the following letters.
SF: Streptococcus faecalis ATCC 10541

Solubility in water = assay type: physicochemical; settings: aqueous buffer; 0.03M phosphate buffer (pH 7.0), 22° C., 15 minutes
Experimental: 1 mg of a test compound was added to 100 μl of 0.03M phosphate buffer (pH 7.0). The mixture was stirred at 22° C. for 15 minutes and filtered through Ekicrodisc 3 (disposable filter unit, Gelman Sciences Japan Co.) to remove insoluble matters. The filtrate is a saturated solution of the test compound. Predetermined amount of the saturated solution was injected into a high performance liquid chromatograph [column: YMC-A212 (C8) .phi.6 mm, 150 mm, eluting solvent: 0.01M-ammonium acetate/methanol, wave length for detection: 254 nm] and peak area of the chromatogram was calculated. Separately, a solution of the test compound in methanoL having a certain concentration of the compound was similarly subjected to the chromatography to make the calibration curve. The solubility of the test compound was calculated by the calibration curve.

peripheral leucocytes = assay: Effect on the peripheral leucocytes number; assay type: in vivo, mouse (ddY strain); settings: minimum dose reducing peripheral leucocytes number to 4000/mm^3; tumour-carrying ddY mice, intraperitoneal, 4 days after administration
Experimental: WBC4000 : Minimum dose of a test compound which reduces the
peripheral leucocytes number to 4000/mm^3.
Sarcoma 180 solid tumour cells (5×10^6) were subcutaneously implanted into the right axilla of each mouse (body weight 20±2 g) of a group consisting of 5 male mice (ddY strain). 24 hours after implantation,a test compound was intraperitoneally administered to each animal. 4 days after the administration, blood (each 0.02 ml) was collected from the suborbital plexus vein of each tumour-carrying animal. The collected sample of blood was dispersed in 9.98 ml of Cell-Kit Seven solution. One drop of saponin solution was added to the sample to dissolve erythrocytes and then a microcell counter was used to count the number of leucocytes. […] The relationship between the number of peripheral leucocytes and the dose of the test compound was plotted and the dose (i.e., WBC4000) corresponding to 4000 peripheral leucocytes/mm^3 (about half the number of leucocytes of normal mice) was obtained.

[2] = test system: Staphylococcus aureus ATCC 6538P; assay: Antibacterial activity (minimum growth inhibitory concentration), agar dilution method; assay type: cell-based; settings: ATCC6538P, pH 7.0, agar dilution method, read-out: minimum growth inhibitory concentration, SA
Experimental: as §1
SA: Staphylococcus aureus ATCC 6538P

[3] = test system: Proteus vulgalis ATCC 6897; assay: as above; assay type: cell-based; settings: pH 7, read-out: minimum growth inhibitory concentration, PV
Experimental: as §1
PV: Proteus vulgalis ATCC 6897

Acute toxicity = settings: mouse, in vivo, ip; ddY mice, intraperitoneally once, 14 days observation
Experimental: Each animal of the test group consisting of 5 ddY mice was administered intraperitoneally once with a test compound. […] The LD50 was determined by Beherns Kaerber's method.

Sarcoma 180 solid tumour = assay: animal or person; settings: for CIc: CI of test compound divided by CI of mitomycin C as control in the same condition; for ED50: Mus musculus, Sarcoma-180, iv, 168 h; for CI (LD50/ED50): chemotherapeutic index
Description: CIc : Value given by division of CI of each test compound by CI of
determination of antitumour activity of the test compound. A CIc
5×10^6 cells of Sarcoma 180 solid tumour were intraperitoneally implanted into ddY mice. 7 days later, ascites cells were sampled. The cells were washed once with a sterilized physiological sodium chloride solution and were used to prepare a cell suspension containing 5×10^7 cells per ml with a sterilized physiological sodium chloride solution. On each occasion, 0.1 ml of the cell suspension was subcutaneously implanted into the right axilla of a male mouse (ddY strain; body weight 20±2 g).
The anti-tumour activity was determined in the following manner. 7 days after the implantation, the major axis (a) and the minor axis (b) of the tumour were measured to calculate a value of "a×b^2 /2" which corresponds to the volume of the tumour. The anti-tumour activity was expressed by the ratio (T/C) of the volume (T) of the tumours of the group of animals administered with the test compound to the corresponding volume (C) of tumours of the untreated animals.
On graph paper, T/C was indicated by an arithmetic scale on the longitudinal axis and the administered amount of the test compound was indicated by a logarithmic scale on the lateral axis.

Bacillus subtilis 10707 = assay: Antibacterial activity (minimum growth inhibitory concentration), agar dilution method; assay type: cell-based; settings: Bacillus subtilis 10707, pH 7.0, agar dilution method; read-out: minimum growth inhibitory concentration, BS
Experimental: as §1
BS: Bacillus subtilis 10707

[4] = test system: Klebsiella pneumoniae ATCC 10031; assay: as above; assay type: cell-based; settings: ATCC10031; Klebsiella pneumoniae ATCC 10031, pH 7.0, agar dilution method; read-out: minimum growth inhibitory concentration, KP
Experimental: as §1
KP: Klebsiella pneumoniae ATCC 10031

Row | Compound | MIC [1] [µg/mL] | solubility at 0.25 h (Solubility in water) [µg/mL] | WBC4000 (peripheral leucocytes) [mg/kg] | MIC [2] [µg/mL] | MIC [3] [µg/mL] | LD50 at 336 h (Acute toxicity) [mg/kg] | CIc (Sarcoma 180 solid tumour) | ED50 (Sarcoma 180 solid tumour) [mg/kg] | CI (LD50/ED50) (Sarcoma 180 solid tumour) | MIC (Bacillus subtilis 10707) [µg/mL] | MIC [4] [µg/mL]
1 | CO[C@@]12[C@H](COC(N)=O)C3=C(C(=O)C(C)=C(NCCSC(C)=O)C3=O)N1C[C@@H]1N[C@@H]12 [Compound 1, 7-N-[(2-acetylthio)ethyl]mitomycin] | < 0.02 | 5600 (≈ 12800 µM) | 9.5 | < 0.02 | 1.3 (≈ 2.98 µM) | 5.6 | 1.2 | 2.3 | 2.4 | < 0.02 | 0.078 (≈ 0.179 µM)
2 | CC(=O)SCCNC1=C(C)C(=O)C2=C(C1=O)[C@H](COC(N)=O)[C@@]1(O)[C@@H]3[C@H](CN21)N3C (some centres unmarked) [Compound 2] | 3.1 (≈ 7.1 µM) | 8900 (≈ 20400 µM) | 14.1 | 3.1 (≈ 7.1 µM) | 25 (≈ 57.3 µM) | 26.3 | 1.9 | 5.6 | 4.7 | 0.78 (≈ 1.79 µM) | 6.3 (≈ 14.4 µM)
3 | CO[C@@]12[C@H](COC(N)=O)C3=C(C(=O)C(C)=C(NCCSC(C)=O)C3=O)N1C[C@H]1[C@@H]2N1C (some centres unmarked) [Compound 3] | 0.039 (≈ 0.0866 µM) | 3800 (≈ 8430 µM) | 11.0 | 0.078 (≈ 0.173 µM) | 20 (≈ 44.4 µM) | 9.4 | 0.88 | 5.6 | 1.7 | < 0.02 | 1.3 (≈ 2.89 µM)
4 | C=C1C2=C(C(=O)C(C)=C(NCCSC(C)=O)C2=O)N2C[C@H]3[C@H](N3C)[C@]12O (some centres unmarked) [Compound 4] | > 100 | 1900 (≈ 5060 µM) | 27.1 | 50 (≈ 133 µM) | 100 (≈ 266 µM) | 45 | 1.6 | 14.9 | 3.0 | 6.3 (≈ 16.8 µM) | 25 (≈ 66.6 µM)
5 | CO[C@@]12[C@H](COC(N)=O)C3=C(C(=O)C(C)=C(NCCCSC(C)=O)C3=O)N1C[C@@H]1N[C@@H]12 [Compound 7] | < 0.02 | 3500 (≈ 7770 µM) | > 25 | 0.039 (≈ 0.0866 µM) | 2.5 (≈ 5.55 µM) | 11.3 | 0.88 | 5.2 | 2.2 | < 0.02 | 0.31 (≈ 0.688 µM)
6 | CC(=O)SCCCNC1=C(C)C(=O)C2=C(C1=O)[C@H](COC(N)=O)[C@@]1(O)[C@@H]3[C@H](CN21)N3C (some centres unmarked) [Compound 8, 7-N-(3-acetylthiopropyl)mitomycin D] | 50 (≈ 111 µM) | 9600 (≈ 21300 µM) | – | > 100 | – | – | – | – | – | 13 (≈ 28.9 µM) | –
7 | CO[C@@]12[C@H](COC(N)=O)C3=C(C(=O)C(C)=C(NCCCCSC(C)=O)C3=O)N1C[C@@H]1N[C@@H]12 [Compound 9] | < 0.02 | 2000 (≈ 4310 µM) | 65.2 | 0.039 (≈ 0.084 µM) | 5 (≈ 10.8 µM) | 90 | 1.6 | 21.7 | 4.1 | < 0.02 | 0.31 (≈ 0.667 µM)
8 | CO[C@@]12[C@H](COC(N)=O)C3=C(C(=O)C(C)=C(NCCCCCSC(C)=O)C3=O)N1C[C@@H]1N[C@@H]12 [Compound 10] | 0.039 (≈ 0.0815 µM) | 1000 (≈ 2090 µM) | > 75 | 0.078 (≈ 0.163 µM) | 5 (≈ 10.4 µM) | > 75 | > 1.1 | 37.5 | > 2.0 | 0.078 (≈ 0.163 µM) | 1.3 (≈ 2.72 µM)
9 | CO[C@@]12[C@H](COC(N)=O)C3=C(C(=O)C(C)=C(NCCCCCCSC(C)=O)C3=O)N1C[C@@H]1N[C@@H]12 [Compound 11] | 0.16 (≈ 0.325 µM) | 210 (≈ 426 µM) | 31.3 | 0.16 (≈ 0.325 µM) | 2.5 (≈ 5.08 µM) | > 200 | 3.9 | 27 | > 7.4 | 0.16 (≈ 0.325 µM) | 1.3 (≈ 2.64 µM)
10 | CO[C@@]12[C@H](COC(N)=O)C3=C(C(=O)C(C)=C(NCCSC(=O)c4ccccc4)C3=O)N1C[C@@H]1N[C@@H]12 [Compound 13] | 0.039 (≈ 0.0782 µM) | 73 (≈ 146 µM) | > 5 | < 0.02 | 5 (≈ 10 µM) | 6 | 0.91 | 4.1 | 1.5 | < 0.02 | 1.3 (≈ 2.61 µM)
11 | CO[C@@]12[C@H](COC(N)=O)C3=C(C(=O)C(C)=C(NCCSC(=O)c4ccc(Br)cc4)C3=O)N1C[C@@H]1N[C@@H]12 [Compound 21] | 0.039 (≈ 0.0675 µM) | 4.7 (≈ 8.14 µM) | 11.5 | < 0.02 | 5 (≈ 8.66 µM) | 9.4 | 1.9 | 2 | 4.7 | < 0.02 | 1.3 (≈ 2.25 µM)
12 | CO[C@@]12[C@H](COC(N)=O)C3=C(C(=O)C(C)=C(NCCSC(C)=S)C3=O)N1C[C@@H]1N[C@@H]12 [Compound 26] | < 0.02 | 260 (≈ 575 µM) | 7.6 | < 0.02 | 0.63 (≈ 1.39 µM) | 6.6 | 1.6 | 1.2 | 5.5 | < 0.02 | 0.078 (≈ 0.172 µM)
